Results taken from the NIST ThermoML archive (doi:10.1016/j.tca.2019.178383).

Assay: xn = mol fraction of the nth substance listed
Details: for surface tension liquid-gas: Maximal bubble pressure; for mass density: 100 kPa, Liquid, Vibrating tube method

CCn1cc[n+](CCOC)c1.O=S(=O)([O-])C(F)(F)F + CC(C)O
Details	mass density [kg/m3]	surface tension liquid-gas [mN/m]
288.15 K, x1 = 0.0997	929.227	21.4
288.15 K, x1 = 0.2004	1030.66	22.3
288.15 K, x1 = 0.3004	1105.98	23.8
288.15 K, x1 = 0.4003	1163.83	25.5
288.15 K, x1 = 0.5004	1210.18	27.2
288.15 K, x1 = 0.6008	1248.32	28.9
288.15 K, x1 = 0.7	1279.5	30.8
288.15 K, x1 = 0.7998	1306.12	32.8
288.15 K, x1 = 0.9003	1329.28	34.5
288.15 K, x1 = 1	1348.94	36.3
293.15 K, x1 = 0.0997	925.015	21.1
293.15 K, x1 = 0.2004	1026.4	22
293.15 K, x1 = 0.3004	1101.69	23.6
293.15 K, x1 = 0.4003	1159.55	25.3
293.15 K, x1 = 0.5004	1205.9	27
293.15 K, x1 = 0.6008	1244.05	28.6
293.15 K, x1 = 0.7	1275.23	30.6
293.15 K, x1 = 0.7998	1301.86	32.6
293.15 K, x1 = 0.9003	1325.01	34.3
293.15 K, x1 = 1	1344.66	36.1
298.15 K, x1 = 0.0997	920.772	20.7
298.15 K, x1 = 0.2004	1022.12	21.7
298.15 K, x1 = 0.3004	1097.4	23.3
298.15 K, x1 = 0.4003	1155.27	25
298.15 K, x1 = 0.5004	1201.63	26.7
298.15 K, x1 = 0.6008	1239.8	28.4
298.15 K, x1 = 0.7	1270.99	30.4
298.15 K, x1 = 0.7998	1297.61	32.3
298.15 K, x1 = 0.9003	1320.76	34.1
298.15 K, x1 = 1	1340.41	35.8
303.15 K, x1 = 0.0997	916.497	20.3
303.15 K, x1 = 0.2004	1017.82	21.5
303.15 K, x1 = 0.3004	1093.11	23.1
303.15 K, x1 = 0.4003	1150.99	24.8
303.15 K, x1 = 0.5004	1197.38	26.5
303.15 K, x1 = 0.6008	1235.56	28.2
303.15 K, x1 = 0.7	1266.76	30.1
303.15 K, x1 = 0.7998	1293.38	32.1
303.15 K, x1 = 0.9003	1316.53	33.9
303.15 K, x1 = 1	1336.17	35.5
308.15 K, x1 = 0.0997	912.188	20
308.15 K, x1 = 0.2004	1013.52	21.2
308.15 K, x1 = 0.3004	1088.82	22.8
308.15 K, x1 = 0.4003	1146.73	24.6
308.15 K, x1 = 0.5004	1193.13	26.3
308.15 K, x1 = 0.6008	1231.33	28
308.15 K, x1 = 0.7	1262.54	29.8
308.15 K, x1 = 0.7998	1289.17	31.9
308.15 K, x1 = 0.9003	1312.32	33.6
308.15 K, x1 = 1	1331.96	35.3
313.15 K, x1 = 0.0997	907.842	19.7
313.15 K, x1 = 0.2004	1009.19	21
313.15 K, x1 = 0.3004	1084.53	22.6
313.15 K, x1 = 0.4003	1142.47	24.4
313.15 K, x1 = 0.5004	1188.9	26.1
313.15 K, x1 = 0.6008	1227.11	27.8
313.15 K, x1 = 0.7	1258.34	29.6
313.15 K, x1 = 0.7998	1284.98	31.7
313.15 K, x1 = 0.9003	1308.13	33.3
313.15 K, x1 = 1	1327.77	35.1
318.15 K, x1 = 0.0997	903.442	19.4
318.15 K, x1 = 0.2004	1004.85	20.7
318.15 K, x1 = 0.3004	1080.23	22.4
318.15 K, x1 = 0.4003	1138.22	24.2
318.15 K, x1 = 0.5004	1184.68	25.9
318.15 K, x1 = 0.6008	1222.91	27.6
318.15 K, x1 = 0.7	1254.16	29.4
318.15 K, x1 = 0.7998	1280.8	31.5
318.15 K, x1 = 0.9003	1303.96	33.1
318.15 K, x1 = 1	1323.6	34.9
